Data from PubChem BioAssay (NCI).
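Tested at 5 concentrations; 48 h exposure; 96-well plates; endpoints linearly interpolated, else capped at highest concentration. TGI marks complete inhibition of growth.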

Columns and labels:
Assay in all cases: DTP human tumour cell line panel, 48 h
SK-MEL-5 melanoma = test system: SK-MEL-5 melanoma
SF-539 CNS = test system: SF-539 CNS
HCC-2998 colon = test system: HCC-2998 colon
HL-60(TB) leukemia = test system: HL-60(TB) leukemia
SK-MEL-2 melanoma = test system: SK-MEL-2 melanoma
OVCAR-8 ovarian = test system: OVCAR-8 ovarian
786-0 renal = test system: 786-0 renal
HT29 colon = test system: HT29 colon
SW-620 colon = test system: SW-620 colon
HCT-116 colon = test system: HCT-116 colon
SK-OV-3 ovarian = test system: SK-OV-3 ovarian
HOP-62 NSCLC = test system: HOP-62 NSCLC
SK-MEL-28 melanoma = test system: SK-MEL-28 melanoma
MALME-3M melanoma = test system: MALME-3M melanoma
MOLT-4 leukemia = test system: MOLT-4 leukemia
K-562 leukemia = test system: K-562 leukemia
EKVX NSCLC = test system: EKVX NSCLC
RXF 393 renal = test system: RXF 393 renal
DLD-1 colon = test system: DLD-1 colon
CCRF-CEM leukemia = test system: CCRF-CEM leukemia
OVCAR-3 ovarian = test system: OVCAR-3 ovarian
NCI-H460 lung = test system: NCI-H460 lung
M14 melanoma = test system: M14 melanoma
U251 CNS = test system: U251 CNS
IGROV1 ovarian = test system: IGROV1 ovarian
UO-31 renal = test system: UO-31 renal
KM20L2 colon = test system: KM20L2 colon
OVCAR-4 ovarian = test system: OVCAR-4 ovarian
COLO 205 colon = test system: COLO 205 colon
LXFL 529 NSCLC = test system: LXFL 529 NSCLC
SF-268 CNS = test system: SF-268 CNS
SN12C renal = test system: SN12C renal
TK-10 renal = test system: TK-10 renal
OVCAR-5 ovarian = test system: OVCAR-5 ovarian
SNB-75 CNS = test system: SNB-75 CNS
UACC-257 melanoma = test system: UACC-257 melanoma
KM12 colon = test system: KM12 colon
ACHN renal = test system: ACHN renal
DMS 114 small cell lung = test system: DMS 114 small cell lung
HCT-15 colon = test system: HCT-15 colon
UACC-62 melanoma = test system: UACC-62 melanoma
SNB-78 CNS = test system: SNB-78 CNS
LOX IMVI melanoma = test system: LOX IMVI melanoma
SF-295 CNS = test system: SF-295 CNS
SR leukemia = test system: SR leukemia
NCI-H226 lung = test system: NCI-H226 lung
M19-MEL melanoma = test system: M19-MEL melanoma
CAKI-1 renal = test system: CAKI-1 renal
A549 NSCLC = test system: A549 NSCLC
A498 renal = test system: A498 renal
XF 498 CNS = test system: XF 498 CNS
DMS 273 small cell lung = test system: DMS 273 small cell lung
HOP-18 NSCLC = test system: HOP-18 NSCLC
NCI-H23 lung = test system: NCI-H23 lung
RPMI-8226 leukemia = test system: RPMI-8226 leukemia
HOP-92 NSCLC = test system: HOP-92 NSCLC
NCI-H522 lung = test system: NCI-H522 lung
SNB-19 CNS = test system: SNB-19 CNS

## CC1(C(=O)Nc2ccc3cc4ccccc4cc3c2)CC2(C)CC(C)(C1)C(O)NC2=O (stereo not given)
SK-MEL-5 melanoma
  TGI: > 100 µM
SF-539 CNS
  TGI: > 100 µM
HCC-2998 colon
  TGI: > 100 µM
HL-60(TB) leukemia
  TGI: 85.8 µM
SK-MEL-2 melanoma
  TGI: > 100 µM
OVCAR-8 ovarian
  TGI: > 100 µM
786-0 renal
  TGI: > 100 µM
HT29 colon
  TGI: > 100 µM
SW-620 colon
  TGI: > 100 µM
HCT-116 colon
  TGI: > 100 µM
SK-OV-3 ovarian
  TGI: > 100 µM
HOP-62 NSCLC
  TGI: > 100 µM
SK-MEL-28 melanoma
  TGI: > 100 µM
MALME-3M melanoma
  TGI: > 100 µM
MOLT-4 leukemia
  TGI: > 100 µM
K-562 leukemia
  TGI: > 100 µM
EKVX NSCLC
  TGI: > 100 µM
RXF 393 renal
  TGI: > 100 µM
DLD-1 colon
  TGI: > 100 µM
CCRF-CEM leukemia
  TGI: > 100 µM
OVCAR-3 ovarian
  TGI: > 100 µM
NCI-H460 lung
  TGI: > 100 µM
M14 melanoma
  TGI: > 100 µM
U251 CNS
  TGI: > 100 µM
IGROV1 ovarian
  TGI: > 100 µM
UO-31 renal
  TGI: > 100 µM
KM20L2 colon
  TGI: > 100 µM
OVCAR-4 ovarian
  TGI: > 100 µM
COLO 205 colon
  TGI: > 100 µM
LXFL 529 NSCLC
  TGI: > 100 µM
SF-268 CNS
  TGI: > 100 µM
SN12C renal
  TGI: > 100 µM
TK-10 renal
  TGI: > 100 µM
OVCAR-5 ovarian
  TGI: > 100 µM
SNB-75 CNS
  TGI: > 100 µM
UACC-257 melanoma
  TGI: > 100 µM
KM12 colon
  TGI: > 100 µM
ACHN renal
  TGI: > 100 µM
DMS 114 small cell lung
  TGI: > 100 µM
HCT-15 colon
  TGI: > 100 µM
UACC-62 melanoma
  TGI: > 100 µM
SNB-78 CNS
  TGI: > 100 µM
LOX IMVI melanoma
  TGI: > 100 µM
SF-295 CNS
  TGI: > 100 µM
SR leukemia
  TGI: > 100 µM
NCI-H226 lung
  TGI: > 100 µM
M19-MEL melanoma
  TGI: > 100 µM
CAKI-1 renal
  TGI: > 100 µM
A549 NSCLC
  TGI: > 100 µM
A498 renal
  TGI: > 100 µM
XF 498 CNS
  TGI: > 100 µM
DMS 273 small cell lung
  TGI: > 100 µM
HOP-18 NSCLC
  TGI: > 100 µM
NCI-H23 lung
  TGI: > 100 µM
RPMI-8226 leukemia
  TGI: > 100 µM
HOP-92 NSCLC
  TGI: > 100 µM

## CC(=O)CC(=O)Nc1ccccc1[N+](=O)[O-]
SK-MEL-5 melanoma
  TGI: > 100 µM
SF-539 CNS
  TGI: > 100 µM
HCC-2998 colon
  TGI: > 100 µM
HL-60(TB) leukemia
  TGI: > 100 µM
SK-MEL-2 melanoma
  TGI: > 100 µM
OVCAR-8 ovarian
  TGI: > 100 µM
786-0 renal
  TGI: > 100 µM
HT29 colon
  TGI: > 100 µM
SW-620 colon
  TGI: > 100 µM
HCT-116 colon
  TGI: > 100 µM
SK-OV-3 ovarian
  TGI: > 100 µM
HOP-62 NSCLC
  TGI: > 100 µM
SK-MEL-28 melanoma
  TGI: > 100 µM
MALME-3M melanoma
  TGI: > 100 µM
MOLT-4 leukemia
  TGI: > 100 µM
K-562 leukemia
  TGI: > 100 µM
EKVX NSCLC
  TGI: > 100 µM
NCI-H522 lung
  TGI: > 100 µM
RXF 393 renal
  TGI: > 100 µM
DLD-1 colon
  TGI: > 100 µM
SNB-19 CNS
  TGI: > 100 µM
CCRF-CEM leukemia
  TGI: > 100 µM
OVCAR-3 ovarian
  TGI: > 100 µM
NCI-H460 lung
  TGI: > 100 µM
M14 melanoma
  TGI: > 100 µM
U251 CNS
  TGI: > 100 µM
IGROV1 ovarian
  TGI: > 100 µM
UO-31 renal
  TGI: > 100 µM
KM20L2 colon
  TGI: > 100 µM
OVCAR-4 ovarian
  TGI: > 100 µM
COLO 205 colon
  TGI: > 100 µM
LXFL 529 NSCLC
  TGI: > 100 µM
SF-268 CNS
  TGI: > 100 µM
SN12C renal
  TGI: > 100 µM
TK-10 renal
  TGI: > 100 µM
OVCAR-5 ovarian
  TGI: > 100 µM
SNB-75 CNS
  TGI: > 100 µM
UACC-257 melanoma
  TGI: > 100 µM
KM12 colon
  TGI: > 100 µM
ACHN renal
  TGI: > 100 µM
DMS 114 small cell lung
  TGI: > 100 µM
HCT-15 colon
  TGI: > 100 µM
UACC-62 melanoma
  TGI: > 100 µM
SNB-78 CNS
  TGI: > 100 µM
SF-295 CNS
  TGI: > 100 µM
SR leukemia
  TGI: > 100 µM
NCI-H226 lung
  TGI: > 100 µM
M19-MEL melanoma
  TGI: > 100 µM
CAKI-1 renal
  TGI: > 100 µM
A549 NSCLC
  TGI: > 100 µM
A498 renal
  TGI: > 100 µM
XF 498 CNS
  TGI: > 100 µM
DMS 273 small cell lung
  TGI: > 100 µM
HOP-18 NSCLC
  TGI: > 100 µM
NCI-H23 lung
  TGI: > 100 µM
RPMI-8226 leukemia
  TGI: > 100 µM
HOP-92 NSCLC
  TGI: > 100 µM

## O=C(NCc1ccccc1)c1cc2ccc(O)c(O)c2cn1
SK-MEL-5 melanoma
  TGI: 23.3 µM
SF-539 CNS
  TGI: 32.6 µM
HCC-2998 colon
  TGI: > 100 µM
HL-60(TB) leukemia
  TGI: > 100 µM
SK-MEL-2 melanoma
  TGI: 25.4 µM
OVCAR-8 ovarian
  TGI: 23.9 µM
786-0 renal
  TGI: 33.1 µM
HT29 colon
  TGI: > 100 µM
SW-620 colon
  TGI: 37.4 µM
HCT-116 colon
  TGI: 32.1 µM
SK-OV-3 ovarian
  TGI: > 100 µM
HOP-62 NSCLC
  TGI: 47.9 µM
SK-MEL-28 melanoma
  TGI: 30.3 µM
MALME-3M melanoma
  TGI: 30.4 µM
K-562 leukemia
  TGI: > 100 µM
EKVX NSCLC
  TGI: > 100 µM
NCI-H522 lung
  TGI: 30.9 µM
RXF 393 renal
  TGI: 30.5 µM
DLD-1 colon
  TGI: 37.8 µM
SNB-19 CNS
  TGI: > 100 µM
CCRF-CEM leukemia
  TGI: > 100 µM
OVCAR-3 ovarian
  TGI: 41.6 µM
NCI-H460 lung
  TGI: 39.1 µM
M14 melanoma
  TGI: 19.3 µM
U251 CNS
  TGI: 52.8 µM
IGROV1 ovarian
  TGI: 44.5 µM
UO-31 renal
  TGI: 36.5 µM
KM20L2 colon
  TGI: > 100 µM
OVCAR-4 ovarian
  TGI: 30.3 µM
COLO 205 colon
  TGI: > 100 µM
LXFL 529 NSCLC
  TGI: 30.6 µM
SF-268 CNS
  TGI: 29.7 µM
SN12C renal
  TGI: 31.7 µM
TK-10 renal
  TGI: > 100 µM
OVCAR-5 ovarian
  TGI: 58.3 µM
SNB-75 CNS
  TGI: 32.9 µM
UACC-257 melanoma
  TGI: 29.1 µM
KM12 colon
  TGI: > 100 µM
ACHN renal
  TGI: 29.4 µM
DMS 114 small cell lung
  TGI: 26.8 µM
HCT-15 colon
  TGI: > 100 µM
UACC-62 melanoma
  TGI: 33.5 µM
SNB-78 CNS
  TGI: 40.6 µM
LOX IMVI melanoma
  TGI: 16.2 µM
SF-295 CNS
  TGI: 31.5 µM
SR leukemia
  TGI: > 100 µM
NCI-H226 lung
  TGI: > 100 µM
M19-MEL melanoma
  TGI: 3.23 µM
CAKI-1 renal
  TGI: 33.6 µM
A549 NSCLC
  TGI: > 100 µM
A498 renal
  TGI: > 100 µM
XF 498 CNS
  TGI: 31.7 µM
DMS 273 small cell lung
  TGI: 32.3 µM
HOP-18 NSCLC
  TGI: 44.5 µM
NCI-H23 lung
  TGI: 25.9 µM
RPMI-8226 leukemia
  TGI: > 100 µM
HOP-92 NSCLC
  TGI: 33.3 µM
